# Test results taken from the NIST ThermoML archive (doi:10.1016/j.tca.2013.03.031).
# Numbers after ± are expanded uncertainties.
# Conditions: 101.33 kPa, Liquid, Vibrating tube method
smiles,measurement,setting,value
"ClCCCl [1,2-dichloroethane]",mass density,288.15 K,1259.99 ± 0.45 kg/m3
same,mass density,293.15 K,1252.77 ± 0.44 kg/m3
same,mass density,298.15 K,1245.49 ± 0.44 kg/m3
same,mass density,303.15 K,1238.18 ± 0.43 kg/m3
same,mass density,308.15 K,1230.84 ± 0.42 kg/m3
same,mass density,313.15 K,1223.46 ± 0.42 kg/m3
"ClC(Cl)C(Cl)Cl [1,1,2,2-tetrachloroethane]",mass density,288.15 K,1601.45 ± 2.3 kg/m3
same,mass density,293.15 K,1593.65 ± 2.3 kg/m3
same,mass density,298.15 K,1585.87 ± 2.3 kg/m3
same,mass density,303.15 K,1578.07 ± 2.3 kg/m3
same,mass density,308.15 K,1570.27 ± 2.2 kg/m3
same,mass density,313.15 K,1562.45 ± 2.2 kg/m3
CCC(C)=O [butanone],mass density,288.15 K,810.262 ± 0.24 kg/m3
same,mass density,293.15 K,805.058 ± 0.24 kg/m3
same,mass density,298.15 K,799.828 ± 0.24 kg/m3
same,mass density,303.15 K,794.565 ± 0.24 kg/m3
same,mass density,308.15 K,789.273 ± 0.24 kg/m3
same,mass density,313.15 K,783.946 ± 0.24 kg/m3
O=C1CCCCC1 [cyclohexanone],mass density,288.15 K,951.178 ± 0.23 kg/m3
same,mass density,293.15 K,946.713 ± 0.23 kg/m3
same,mass density,298.15 K,942.243 ± 0.23 kg/m3
same,mass density,303.15 K,937.767 ± 0.23 kg/m3
same,mass density,308.15 K,933.285 ± 0.23 kg/m3
same,mass density,313.15 K,928.795 ± 0.23 kg/m3
CCCCCC(C)=O [2-heptanone],mass density,288.15 K,819.786 ± 0.65 kg/m3
same,mass density,293.15 K,815.497 ± 0.64 kg/m3
same,mass density,298.15 K,811.198 ± 0.64 kg/m3
same,mass density,303.15 K,806.887 ± 0.63 kg/m3
same,mass density,308.15 K,802.562 ± 0.63 kg/m3
same,mass density,313.15 K,798.222 ± 0.63 kg/m3
